# Laboratory results: patent US11464796B2, “Nicotinamide mononucleotide derivatives and their uses” (Metro International Biotech, LLC, priority 2015, dated 2022)
# Structures can show the parent of a compound that is named as a salt.
# What was measured:
# NAD+ levels in liver = assay: NAD+ level in liver of mice after a single oral dose (LC/MS), ratio to vehicle control; assay type: in vivo; details: single oral gavage in PBS, generally 500 mg/ml (in some cases 250 mg/kg or ethanol/PBS/PEG400), fasted male C57/BL6 mice; for ratio of mean NAD+ concentration in treated mice compared to vehicle control mice, 4 hr liver: 4 hr post-dose; for ratio of mean NAD+ concentration in treated mice compared to vehicle control mice, 8 hr liver: 8 hr post-dose; for ratio of mean NAD+ concentration in treated mice compared to vehicle control mice, 24 hr liver: 24 hr post-dose
# Procedure: (§1) As the compounds disclosed herein can act as prodrugs for NMN, their biological activity was assessed in vivo by measuring the ability to elevate NAD+ levels in liver and skeletal muscle. These tissues were selected for pharmacodynamics studies due to their relevance for the treatment of metabolic diseases. In general, C57/BL6 mice were fasted from 16 hours, then administered a […] oral dose of a disclosed compound in PBS buffer by oral gavage. In some cases, the dose was 250 mg/kg or in an alternate vehicle: ethanol/PBS/PEG400 (10/30/60). After dosing, the mice were sacrificed at pre-set time points after dosing (generally 4, 8 and 24 hours). The liver and skeletal tissues were removed and flash frozen. After some period of frozen storage, tissue homogenates were prepared. The level of NAD+ was quantified using LC/MS methods.
# (§2) For bioanalysis, a method of standard addition was used to quantify the NAD. Each homogenate was divided and certain aliquots had known concentrations of exogenous NAD added. The NAD present in the original sample was then calculated by linear regression. Data are presented as a ratio of mean NAD concentration in treated mouse tissues to mean NAD concentration in the vehicle control group tissues at the paired time points.
# (§3) Mixtures of compound and PBS, pH 7 were formulated ˜1 hour before dosing and remained stirring until dose completion. Residual formulated test materials were stored at −20±5° C. until discarded. Naïve male C57/BL6 mice at ˜25 g at dose initiation, age as appropriate for weight were assigned to dose groups of six animals per dose. Dosing treatments were administered via a single oral gavage dose (PO) The dose volume for each animal (5 mL/kg) was based on the most recent body measurements taken the morning of dosing. Animals were fasted at least 16 hrs prior to dose, with food returned at least 4 hours post dose.
# (§4) Liver and skeletal muscle were collected and analyzed for nicotinamide adenine dinucleotide (NAD) at 0, 4, 8, and 24 hours post-dose. For each mouse, the entire liver was removed, rinsed with saline, blotted dry and frozen at −70° C. to store for NAD concentration analysis. Also, the soleus skeletal muscle was removed from the gastrocnemius, rinsed with saline, blotted dry and frozen at −70° C. to store for NAD concentration analysis.
# (§5) • 1. Add 5× (tissue wt.*5)mL 0.1M ZnSO4 into all tubes. • 2. Add 5× (tissue wt*5)mL Methanol into all tubes. • 3. Homogenize each sample until completely liquid. • 4. Vortex each sample. Tissue Extraction Procedure • 1. On ice, aliquot 20 μL of standards, control blanks, and matrix blanks into a 96-well plate. • 2. Aliquot 20 μL of sample into sample wells. • 3. Add 1004, of IS in 80:20 Methanol:water into each well, except blanks add 100 μL of blank 80:20 Methanol:Water. • 4. Cover plate and vortex samples. Centrifuge for 10 minutes at 3300 rpm. • 5. Transfer 80 μL of supernatant into a clean 96-well plate. • 6. Add 80 μL of LC-MS water to all wells. • 7. Cover and vortex. The concentration of NAD+ in the tissues was determined by LC/MS. The conditions are as follows:
# (§6) The ratio of mean NAD+ concentration in the liver and skeletal tissues of treated mice compared to vehicle control mice are given in Table 5. The data is given for the 4, 8, and 24 hour time points.
# [1] = tested on: NAD+ levels in skeletal muscle; assay: NAD+ level in skeletal muscle of mice after a single oral dose (LC/MS), ratio to vehicle control; assay type: in vivo; details: soleus skeletal muscle, single oral gavage in PBS, generally 500 mg/ml (in some cases 250 mg/kg or ethanol/PBS/PEG400), fasted male C57/BL6 mice; for ratio of mean NAD+ concentration in treated mice compared to vehicle control mice, 4 hr skeletal: 4 hr post-dose; for ratio of mean NAD+ concentration in treated mice compared to vehicle control mice, 8 hr skeletal: 8 hr post-dose; for ratio of mean NAD+ concentration in treated mice compared to vehicle control mice, 24 hr skeletal: 24 hr post-dose
# Procedure: as §1, §2, §3, §4, §5, §6
Compound,"ratio of mean NAD+ concentration in treated mice compared to vehicle control mice, 4 hr liver (NAD+ levels in liver)","ratio of mean NAD+ concentration in treated mice compared to vehicle control mice, 8 hr liver (NAD+ levels in liver)","ratio of mean NAD+ concentration in treated mice compared to vehicle control mice, 24 hr liver (NAD+ levels in liver)","ratio of mean NAD+ concentration in treated mice compared to vehicle control mice, 4 hr skeletal [1]","ratio of mean NAD+ concentration in treated mice compared to vehicle control mice, 8 hr skeletal [1]","ratio of mean NAD+ concentration in treated mice compared to vehicle control mice, 24 hr skeletal [1]"
"NC(=O)c1ccc[n+]([C@@H]2OC(COP3(=O)OCCC(c4cc(F)cc(F)c4)O3)[C@@H](O)[C@H]2O)c1.O=C([O-])C(F)(F)F (stereo partly drawn) [Compound 2, 1-((2R,3R,4S)-5-(((4-(3,5-Difluorophenyl)-2-oxido-1,3,2-dioxaphosphinan-2-yl)oxy)methyl)-3,4-dihydroxytetrahydrofuran-2-yl)-1λ^4-pyridine-3-carboxamide Trifluoroacetate Salt]",2.0,1.6,1.8,0.9,1.0,1.4
"CC(C)OC(=O)[C@H](C)NP(=O)(OCC1O[C@@H]([n+]2cccc(C(N)=O)c2)[C@H](O)[C@@H]1O)Oc1ccccc1 (stereo partly drawn) [Compound 4, Isopropyl ((((3S,4R,5R)-5-(3-carbamoyl-1λ4-pyridin-1-yl)-3,4-dihydroxytetrahydrofuran-2-yl)methoxy)(phenoxy)phosphoryl)-L-alaninate Trifluoroacetate Salt]",1.0,1.7,1.8,0.9,1.4,1.1
"CC(C)(C)C(=O)SCCOP(=O)(NCc1ccccc1)OCC1OC([n+]2cccc(C(N)=O)c2)C(O)C1O (stereo not drawn) [Compound 6, 1-(5-((((Benzylamino)(2-(pivaloylthio)ethoxy)phosphoryl)oxy)methyl)-3,4-dihydroxytetrahydrofuran-2-yl)-3-carbamoylpyridin-1-ium Trifluoroacetate Salt]",4.3,6.6,3.5,1.3,1.7,2.6
"CC(NP(=O)(OCC1O[C@@H]([n+]2cccc(C(N)=O)c2)[C@H](O)[C@@H]1O)Oc1cccc2ccccc12)C(=O)OCc1ccccc1 (stereo partly drawn) [Compound 8, 1-((2R,3R,4S)-5-(((((1-(Benzyloxy)-1-oxopropan-2-yl)amino)(naphthalen-1-yloxy)phosphoryl)oxy)methyl)-3,4-dihydroxytetrahydrofuran-2-yl)-3-carbamoylpyridin-1-ium Trifluoroacetate Salt]",1.2,1.0,0.9,1.0,0.8,0.8
"CCC(CC)COC(=O)C(C)NP(=O)(OCC1O[C@@H]([n+]2cccc(C(N)=O)c2)[C@H](O)[C@@H]1O)Oc1ccccc1 (stereo partly drawn) [Compound 9, 2-Ethylbutyl ((((3S,4R,5R)-5-(3-carbamoyl-1λ^4-pyridin-1-yl)-3,4-dihydroxytetrahydrofuran-2-yl)methoxy)(phenoxy)phosphoryl)alaninate Trifluoroacetate Salt]",0.8,0.8,1.3,1.88,1.34,0.96
"CCOP(=O)(OCC)OCC1OC([n+]2cccc(C(N)=O)c2)C(O)C1O (stereo not drawn) [Compound 19, 3-Carbamoyl-1-(5-(((diethoxyphosphoryl)oxy)methyl)-3,4-dihydroxytetrahydrofuran-2-yl)pyridin-1-ium Chloride]",1,1,1,0.8,1.2,0.1
"CCCCCCCCCCCCCCCOCCCOP(=O)(OC)OCC1OC([n+]2cccc(C(N)=O)c2)C(O)C1O (stereo not drawn) [Compound 21, 3-Carbamoyl-1-(3,4-dihydroxy-5-(((methoxy(3-(pentadecyloxy)propoxy)phosphoryl)oxy)methyl)tetrahydrofuran-2-yl)pyridin-1-ium Trifluoroacetate Salt]",2.2,2.1,1.7,1.3,2.4,3.4
